Experimental data as given in patent EP2629618B1, “AGROCHEMICAL CO[…]” (Syngenta Limited, priority 2010, dated 2012).
Like-named read-outs stand apart in the source and are kept apart here.

Test system: Septoria tritici
Test: curative testing against Septoria tritici on wheat plants in pots, visual score of disease severity
Type: in vivo
Details: Zymoseptoria tritici, adjuvant (if any) 0.1 %w/v, spray 200l/ha, read-out: % Efficacy; for Emax at 3 µg/mL: isopyrazam 3 mg per litre; for Emax at 10 µg/mL: isopyrazam 10 mg per litre; for Emax at 30 µg/mL: isopyrazam 30 mg per litre; for Emax at 100 µg/mL: isopyrazam 100 mg per litre
Method: The test data relate to curative testing against Septoria tritici on wheat. The wheat plants in pots are inoculated 3 to 5 days prior to spraying as indicated. The isopyrazam is formulated as an aqueous suspension concentrate formulation containing 250 g/l of isopyrazam. The suspension concentrate formulation is diluted to the concentrations of isopyrazam shown in the Tables with water prior to spraying. When adjuvant is included it is used at 0.1 %w/v in the spray dilution unless otherwise indicated. An inert non-adjuvant additive is included in all treatments to provide spray retention. The spray application is 200l/ha.
Three assessments are made per pot of wheat with […] fully randomised. The three replicate pots are visually assessed and given a score of disease severity. The percent efficacy corresponds to the reduction in average disease severity in the treated pots compared to the untreated pots as a percentage of the average disease severity of the untreated pots. Each Table represents a side-by-side experiment.

[1] = Table 2, treatment 4 days, assessment 18 days after inoculation
[2] = Table 3, treatment 4 days, assessment 17 days after inoculation
[3] = Table 4, treatment 4 days, assessment 18 days after inoculation
[4] = Table 5, treatment 3 days, assessment 19 days after inoculation
[5] = Table 6, treatment 4 days, assessment 17 days after inoculation
[6] = Table 7, treatment 4 days, assessment 18 days after inoculation

CC(C)C1C2CCC1c1c(NC(=O)c3cn(C)nc3C(F)F)cccc12 (stereo not drawn) [isopyrazam, Isopyrazam]
Emax at 3 µg/mL [1]: 32%
Emax at 10 µg/mL [1]: 36%
Emax at 30 µg/mL [1]: 47%
Emax at 100 µg/mL [1]: 41%
Emax at 3 µg/mL [2]: 17.9%
Emax at 10 µg/mL [2]: -0.53%
Emax at 30 µg/mL [2]: 10%
Emax at 100 µg/mL [2]: 8.9%
Emax at 3 µg/mL [3]: 41%
Emax at 10 µg/mL [3]: 39%
Emax at 30 µg/mL [3]: 29%
Emax at 100 µg/mL [3]: 25%
Emax at 3 µg/mL [4]: 8.8%
Emax at 10 µg/mL [4]: 9.4%
Emax at 30 µg/mL [4]: 14%
Emax at 100 µg/mL [4]: 0.59%
Emax at 3 µg/mL [5]: 9.1%
Emax at 10 µg/mL [5]: 6.8%
Emax at 30 µg/mL [5]: 19%
Emax at 100 µg/mL [5]: 14%
Emax at 3 µg/mL [6]: 5.1%
Emax at 10 µg/mL [6]: 15%
Emax at 30 µg/mL [6]: -18%
Emax at 100 µg/mL [6]: 32%
